Results taken from publication PMC4818757, “Small molecule inhibitors of the Dishevelled‐CXXC5 interaction are new drug candidates for bone anabolic osteoporosis therapy” (EMBO Molecular Medicine, 2016).

Assays:
[1] = tested on: mouse embryonic fibroblast (MEF) cells; test: qRT-PCR of pathway-specific target genes in MEF cells (off-target); assay type: cell-based; conditions: 12 hours
Procedure: To evaluate off‐target effects of KY‐02327, we monitored the transcriptional regulation of target genes of major cell signaling pathways in KY‐02327‐treated mouse embryonic fibroblast (MEF) cells (Appendix Table S2 and Appendix Fig S5). […] However, the target genes of other pathways were unaffected by the treatment of KY‐02327 (Appendix Fig S5B‐J). […]
on mouse embryonic fibroblast cells for 12 hours. The mRNA level of pathway-specific target genes (Appendix Table S2) was measured by quantitative real-time […]
Data Information: The data are the mean ± s.d. (error bars), and significance was assessed using unpaired Student’s t-test. [n =3]

[2] = biological target: hERG potassium channel (Homo sapiens, UniProt Q12809); test: hERG binding assay (fluorescence polarization); conditions: human; 10 µM compound; fluorescence polarization
[3] = biological target: Human Ether-à-go-go Related Gene (hERG) potassium channel (Homo sapiens, UniProt Q12809); test: hERG binding assay (fluorescence polarization)
[4] = biological target: CYP C29 (so in the source); probably CYP2C9) (Homo sapiens, UniProt P11712); test: Cytochrome P450 inhibition assay, C29; conditions: probe fluorogenic P450 substrates
Source text: Appendix Table S4. Cytochrome P450 (CYP) inhibition assay with 10 µ M KY-

[5] = tested on: MC3T3E1 cells; test: β-catenin and Runx2 immunoblot/immunofluorescence in MC3T3E1 cells; assay type: cell-based, murine; conditions: 2 days, dose‐dependent
Procedure: Figure 5 Effects of KY‐02327 on Wnt/β‐catenin pathway and osteoblast differentiation in osteoblasts • A MC3T3E1 cells were transfected with pTOPFLASH together with pCMV‐β‐gal. After 24 h, the cells were treated with indicated dose of KY‐02327 for 2 days. The luciferase activities of whole‐cell lysates were measured and normalized with β‐galactosidase activities. (n = 3) • B, C MC3T3E1 cells were treated with indicated concentrations of KY‐02327 for 2 days. β‐Catenin and α‐tubulin were detected by immunoblot (B) or immunofluorescence (C) analyses. Nuclei were counterstained with DAPI (C, blue). Scale bars, 100 μm. • D MC3T3E1 cells were treated with indicated concentrations of KY‐02327 for 14 days. The mRNA level of collagen 1a (Col1a) was measured by quantitative real‐time PCR (qRT–PCR). (n = 3) • E MC3T3E1 cells were treated with indicated concentrations of KY‐02327 for 21 days. The mRNA level of osteocalcin (OCN) was measured by qRT–PCR. (n = 3) Data Information: For A, D, and E, the data are the mean ± s.d. (error bars), and significance was assessed using unpaired Student's t‐test. […]

[6] = tested on: ex vivo‐cultured calvaria; test: Ex vivo calvaria culture, thickness; assay type: cell-based, mouse; conditions: 7 days
Procedure: Figure 1 Identification and characterization of small molecules competing Dvl–CXXC5 binding in vitro • A A scheme for in vitro screening method of small molecules competing Dvl–CXXC5 binding. Briefly, purified Dvl PDZ domain was attached to the polystyrene surface of each well of 96‐well plates. Then, PolyR‐DBM (polyarginine‐conjugated Dvl binding motif tagged with FITC) (Kim et al, 2015) was added to each well and allowed to bind to the Dvl PDZ domain; 10 μM small‐molecule compound was added to each well, and the compounds competing with Dvl PZD‐PolyR‐DBM binding were measured by a microplate reader to screen the compounds reducing fluorescence signal. • B Screening results of compounds competing Dvl–CXXC5 interaction. […] The relative numbers of β‐catenin‐positive nuclei were counted (D). […] The calvaria thicknesses were measured from the images using Image Pro software (F). […] (error bars), and significance was assessed using unpaired Student's t‐test.
Figure 3 Effect of KY‐02061 on Wnt/β‐catenin pathway, osteoblast differentiation, and ex vivo‐cultured calvaria growth • A MC3T3E1 cells were transfected with pTOPFLASH together with pCMV‐β‐gal. […] The luciferase activities of whole‐cell lysates were measured and normalized with β‐galactosidase activities. […] The calvaria thicknesses were measured from the stained sections using Image Pro software (E). […]

CYP C29 (so in the source); probably CYP2C9), sequence (P11712 whole entry): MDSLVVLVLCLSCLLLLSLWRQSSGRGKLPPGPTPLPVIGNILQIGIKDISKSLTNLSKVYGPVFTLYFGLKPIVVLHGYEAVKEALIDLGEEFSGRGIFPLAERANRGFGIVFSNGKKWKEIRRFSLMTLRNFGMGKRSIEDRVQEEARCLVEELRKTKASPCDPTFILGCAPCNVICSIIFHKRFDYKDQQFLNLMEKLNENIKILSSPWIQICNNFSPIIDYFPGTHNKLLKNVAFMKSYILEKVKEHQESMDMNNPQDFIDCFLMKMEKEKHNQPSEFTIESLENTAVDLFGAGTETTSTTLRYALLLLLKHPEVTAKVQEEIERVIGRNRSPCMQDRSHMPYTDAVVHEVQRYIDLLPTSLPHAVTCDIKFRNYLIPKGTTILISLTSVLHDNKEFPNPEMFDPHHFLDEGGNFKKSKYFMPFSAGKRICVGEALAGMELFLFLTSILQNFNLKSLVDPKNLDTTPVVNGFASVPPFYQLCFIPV
Human Ether-à-go-go Related Gene (hERG) potassium channel, sequence (Q12809 whole entry): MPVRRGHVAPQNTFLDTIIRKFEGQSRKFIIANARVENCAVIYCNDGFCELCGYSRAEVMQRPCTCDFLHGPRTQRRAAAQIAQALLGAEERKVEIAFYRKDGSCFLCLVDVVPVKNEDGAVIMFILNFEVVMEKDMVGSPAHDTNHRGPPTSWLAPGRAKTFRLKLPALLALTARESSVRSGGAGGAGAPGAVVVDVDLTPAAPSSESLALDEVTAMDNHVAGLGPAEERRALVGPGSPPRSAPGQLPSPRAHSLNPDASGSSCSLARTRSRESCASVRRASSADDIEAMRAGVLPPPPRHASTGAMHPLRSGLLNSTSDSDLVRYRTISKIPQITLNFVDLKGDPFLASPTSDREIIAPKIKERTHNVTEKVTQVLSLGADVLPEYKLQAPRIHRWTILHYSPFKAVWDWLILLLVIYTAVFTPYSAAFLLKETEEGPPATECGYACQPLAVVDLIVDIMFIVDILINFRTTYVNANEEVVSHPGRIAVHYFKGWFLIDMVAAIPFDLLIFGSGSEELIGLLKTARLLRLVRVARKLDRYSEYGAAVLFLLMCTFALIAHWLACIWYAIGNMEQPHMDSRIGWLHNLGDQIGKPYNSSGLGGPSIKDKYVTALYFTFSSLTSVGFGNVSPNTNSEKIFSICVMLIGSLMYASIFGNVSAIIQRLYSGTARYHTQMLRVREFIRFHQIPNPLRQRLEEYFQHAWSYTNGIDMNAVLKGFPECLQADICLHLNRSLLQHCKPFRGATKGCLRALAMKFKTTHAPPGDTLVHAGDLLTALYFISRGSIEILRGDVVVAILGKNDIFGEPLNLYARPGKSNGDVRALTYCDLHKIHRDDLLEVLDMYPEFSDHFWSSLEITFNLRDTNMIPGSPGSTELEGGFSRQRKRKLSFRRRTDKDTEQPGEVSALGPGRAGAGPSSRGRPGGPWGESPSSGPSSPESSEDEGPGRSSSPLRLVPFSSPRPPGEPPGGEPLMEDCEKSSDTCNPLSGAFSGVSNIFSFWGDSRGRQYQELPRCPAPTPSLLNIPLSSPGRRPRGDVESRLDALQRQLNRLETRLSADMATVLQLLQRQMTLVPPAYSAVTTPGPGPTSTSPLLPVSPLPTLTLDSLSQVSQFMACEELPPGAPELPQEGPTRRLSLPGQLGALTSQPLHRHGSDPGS
hERG potassium channel, sequence (Q12809 whole entry): as above

| SMILES | mRNA levels of Wnt/β‐catenin target genes [1] | target genes of other pathways (off-target) [1] | inhibition at 10 µM [2] [%] | cardiotoxicity (hERG potassium channel inhibition test) [3] | inhibition at 10 µM [4] [%] | β‐catenin protein level together with Runx2, nuclear β‐catenin [5] | increase of thickness of ex vivo‐cultured calvaria compared with DMSO‐treated control ([6]; 2 μM) [%] | thickness of ex vivo‐cultured calvaria, dose dependence [6] |
| --- | --- | --- | --- | --- | --- | --- | --- | --- |
| CCOC(=O)c1cc2cc(O)ccc2n1CC(=O)NCCN1CCCCC1 [KY‐02327] | significantly increased | unaffected | 10.9 ± 2.07 | did not show any significant cardiotoxicity | 0 | increased | – | – |
| CCOC(=O)Cn1c(C(=O)OCC)cc2cc(OS(=O)(=O)c3ccc(C)cc3)ccc21 [KY‐02061] | – | – | – | – | – | – | 51.2 | increased |
